Experiments:
[1] = molecular target: T1, MMP-17 catalytic domain (Homo sapiens, UniProt Q9ULZ9); test: Thiopeptolide substrate hydrolysis inhibition assay, MMP-17 catalytic domain; type: biochemical; details: read-out: MMP-17 CD IC50
T1 construct: MMP-14 catalytic domain, and MMP-17 catalytic domain
T1 sequence (Q9ULZ9 126-295 limits assumed): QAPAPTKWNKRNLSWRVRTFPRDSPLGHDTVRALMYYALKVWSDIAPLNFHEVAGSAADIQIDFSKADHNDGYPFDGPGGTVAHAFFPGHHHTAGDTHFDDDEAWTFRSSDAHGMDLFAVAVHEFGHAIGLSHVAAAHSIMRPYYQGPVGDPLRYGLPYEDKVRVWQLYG
Excerpt: (§1) The assay methods of Biological Examples 1-4 measure the amount by which a test compound reduces the hydrolysis of a thiopeptolide substrate catalyzed by a matrix metalloproteinase enzyme or catalytic domain thereof. It has been shown previously by Ye Qi-Zhuang, Hupe D., and Johnson L. (Current Medicinal Chemistry, 1996;3:407-418) that inhibitor activity against a catalytic domain of an MMP is predictive of the inhibitor activity against the respective full-length MMP enzyme. The methods described below for the inhibition of MMP-13 may also be adapted and used to determine the ability of the compounds of Formula I to inhibit other matrix metalloproteases such as MMP-1, MMP-2, MMP-3, MMP-7, MMP-8, MMP-9, MMP-12, MMP-14, MMP-17, and the like.
(§2) Thiopeptolide substrates show virtually no decomposition or hydrolysis at or below neutral pH in the absence of a matrix metalloproteinase enzyme. A typical thiopeptolide substrate commonly utilized for assays is Ac-Pro-Leu-Gly-thioester-Leu-Leu-Gly-OEt. A 100 μL assay mixture will contain 50 mM of N-2-hydroxyethylpiperazine-N′-2-ethanesulfonic acid buffer (“HEPES,” pH 7.0), 10 mM CaCl2, 100 μM thiopeptolide substrate, and 1 mM 5,5′-dithio-bis-(2-nitro-benzoic acid) (DTNB). […] The change in absorbance at 405 nm is monitored on a Thermo Max microplate reader (molecular Devices, Menlo Park, Calif.) at room temperature (22° C.). The calculation of the amount of hydrolysis of the thiopeptolide substrate is based on E412=13600 M^−1 cm^−1 for the DTNB-derived product 3-carboxy-4-nitrothiophenoxide. Assays are carried out with and without matrix metalloproteinase inhibitor compounds, and the amount of hydrolysis is compared for a determination of inhibitory activity of the test compounds.
(§3) Test compounds were evaluated at various concentrations in order to determine their respective IC50 values, the micromolar concentration of compound required to cause a 50% inhibition of catalytic activity of the respective enzyme.
(§4) Some representative compounds of Formula I have been evaluated for their ability to inhibit MMP-13, MMP-1FL, MMP-3CD, MMP-7FL, MMP-8FL, MMP-9FL, MMP-12CD, MMP-14CD, and/or MMP-17CD, wherein FL means full-length enzyme and CD means a catalytic domain of the full-length enzyme. Test compounds can be evaluated at various concentrations in order to determine their respective IC50 values, the micromolar concentration of compound required to cause a 50% inhibition of the hydrolytic activity of the respective enzyme.
(§5) Certain compounds of Formula I have also been assayed with MMP-1 full-length, MMP-3 catalytic domain, MMP-7 full-length, MMP-8 full-length, MMP-9 full-length, MMP-12 catalytic domain, MMP-14 catalytic domain, and MMP-17 catalytic domain. […] In Biological Table 2, the compound example numbers for the Compound Examples are indicated in the column labelled “Ex. No.”

[2] = molecular target: T2, MMP-14 catalytic domain (Homo sapiens, UniProt P50281); test: Thiopeptolide substrate hydrolysis inhibition assay, MMP-14 catalytic domain; type: biochemical; details: read-out: MMP-14CD IC50
T2 construct: MMP-14 catalytic domain, and MMP-17 catalytic domain
Excerpt: as §1, §2, §3, §4, §5

[3] = Pharmacokinetics in Sprague-Dawley rats (single IV or oral dose); type: in vivo, rat
Excerpt: For comparison purposes, a reference compound was separately characterized according to its pharmacokinetics properties except AUC in a similar manner. The reference compound (“Reference Compound 1”) was the compound of Example 188 of PCT International Patent Application Publication number WO 02/064572 A1, which is also described in PCT International Patent Application Publication number WO 02/064080 A2 in Table IVb on page 76, 5th species from the top. […] Reference Compound 1 is named 4-[6-(4-methoxy-benzylcarbamoyl)- 1 -methyl-2,4-dioxo- 1,4-dihydro-2H-pyrido[3,4-d]pyrimidin-3-ylmethyl]-benzoic acid, and has the structure drawn below: [drawing 98]

[4] = molecular target: T3, MMP-3 catalytic domain (Homo sapiens, UniProt P08254); test: Thiopeptolide substrate hydrolysis inhibition assay, MMP-3 catalytic domain; type: biochemical; details: MES buffer pH 6.0, read-out: MMP-3CD IC50
T3 construct: MMP-1 full-length, MMP-3 catalytic domain, MMP-7 full-length
Excerpt: as §1, §2, §3
It should be appreciated that the assay buffer used with MMP-3CD was 50 mM N-morpholinoethane sulfonate (“MES”) at pH 6.0 rather than the HEPES buffer at pH 7.0 described above.
as §4, §5

T3 sequence (P08254 100-272 limits assumed): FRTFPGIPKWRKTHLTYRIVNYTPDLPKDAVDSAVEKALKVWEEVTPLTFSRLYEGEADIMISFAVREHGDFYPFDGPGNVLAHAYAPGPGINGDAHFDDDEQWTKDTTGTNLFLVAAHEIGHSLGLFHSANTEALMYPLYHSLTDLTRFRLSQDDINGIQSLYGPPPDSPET

Compound: COc1ccc(CNC(=O)c2cc3c(=O)n(Cc4ccc(C(=O)O)cc4)cnc3cn2)cc1 [Compound Example 1, 4-[6-(4-methoxy-benzylcarbamoyl)-4-oxo-4H-pyrido[3,4-d]pyrimidin-3-ylmethyl]-benzoic acid]
- IC50 [1]: > 100 µM
- IC50 [2]: > 100 µM
- clearance ([3]; rat, blood, Sprague-Dawley rats, single 5 mg/kg intravenous dose, read-out: IV CL): 7.1 mL/min/kg
- half-life ([3]; rat, blood, Sprague-Dawley rats, single 5 mg/kg intravenous dose, read-out: IV T1/2 (converted)): 2.1 h
- PO AUC (ng/hr/mL) ([3]; rats, single 5 mg/kg oral dose): 3,750 ng/hr/mL
- IC50 [4]: 26 µM

— patent US20050085447A1, “Pyrido[3,4-d]pyrimidine derivatives as matrix metalloproteinase-13 inhibitors” (Warner-Lambert Company LLC, priority 2003, published 2005)
